Assay results published in patent publication US20260285888A1, “HETEROCYCLIC COMPOUND AND USE THEREOF” (OTSUKA PHARMACEUTICAL CO., LTD., priority 2023, published 2026).

Key:
in vitro = format: cell-based, human; conditions: human, differentiated hl-60 cells, 300 μmol/L, about 24 hours, PMA-differentiated HL-60 cells, LDH; no-treatment 0%, cell lysis buffer 100%; read-out: cytotoxicity (%) Evaluation compound results
Method: An HL-60 cell line (human acute promyelocytic leukemia cells) was successively cultured in RPMI 1640 containing 20% fetal bovine serum (FBS) at 37° C. in 95% atmosphere/5% CO2. Before evaluation, the cells were pre-cultured for about 72 hours in the presence of 10 nM phorbol 12-myristate 13-acetate (PMA) to induce macrophage-like differentiation.
Evaluation compounds were dissolved in DMSO to obtain 30 mmol/L solutions (or suspensions). Each DMSO solution was diluted 100-fold with RPMI 1640 containing 2% FBS (final concentration of the compound: 300 μmol/L) to obtain a treatment solution. The culture supernatant of the differentiated HL-60 cells was removed, and each treatment solution was added and cultured for about 24 hours, followed by cytotoxicity evaluation.
The activity of lactate dehydrogenase (LDH) was measured in the treatment solutions exposed to the cells for about 24 hours by using a commercial kit (Cytotoxicity LDH Assay Kit-WST, Dojindo Laboratories) and a plate reader (Tecan Infinite M1000). The obtained measurement values were used to calculate cytotoxicity (%) as comparison values for each evaluation compound-treated group, with the no-treatment group taken as 0% and the cell lysis buffer-treated group taken as 100%. The test was conducted in triplicate in three wells each, and the average values were used as adopted values.

[1] = Study for confirmation of conversion to brexpiprazole in a buffer (stability of the evaluation compounds); format: physicochemical; conditions: for Concentration of brexpiprazole formed / Concentration of evaluation compound decreased: in buffer, average of duplicate; for Concentration of brexpiprazole formed: 60-minute reaction sample; for Concentration of evaluation compound decreased: decrease in 60-minute vs 0-minute reaction sample
Method: The conversion from the evaluation compounds to brexpiprazole in a buffer (i.e., the stability of the evaluation compounds) was evaluated.
The Example 1 compound was dissolved in acetonitrile/water (1:1, v/v) to 10 mmol/L and further diluted with acetonitrile/water (1:1, v/v) to 100 μmol/L for use.
The other Example compounds and the Reference Example 5 compound to Reference Example 7 compound were each dissolved in DMSO to 10 mmol/L and further diluted with acetonitrile to 100 μmol/L for use, except for the following compounds.
The compounds of Examples 52, 95, 96, 117, and 130 (EX 52, EX 95, EX 96, EX 117, and EX 130) were dissolved in acetonitrile/water (8:2, v/v) to 10 mmol/L and further diluted with acetonitrile to 100 μmol/L for use.
The compound of Example 97 (EX 97) was dissolved in acetonitrile/water (8:2, v/v) to 10 mmol/L and further diluted with acetonitrile/water (8:2, v/v) to 100 μmol/L for use.
The compounds of Examples 15 and 116 (EX 15 and EX 116) were dissolved in DMSO to 1 mmol/L and further diluted with acetonitrile to 100 μmol/L for use.
The reaction was conducted by preparing each reaction solution such that the final concentration of each component was as follows. The test was conducted in duplicate.
For the compounds of Examples 1 to 8, 10 to 19, 26 to 27, 37, 50, 87 to 89, 91, 116, 121, 123, 150, and 151 (EX 1 to EX 8, EX 10 to EX 19, EX 26 to EX 27, EX 37, EX 50, EX 87 to EX 89, EX 91, EX 116, EX 121, EX 123, EX 150, and EX 151), and the compounds of Reference Examples 5 to 7 (REX 5 to REX 7), the reaction solution without the evaluation compound (198 μl) was pre-incubated at 37° C. for 3 minutes, and then each of the evaluation compound solutions (2 μl) was added and stirred; thereafter, the reaction was started at 37° C. At 0 minutes or 60 minutes after the start of the reaction, the reaction was stopped by adding and stirring a reaction stop solution (1000 μl) composed of acetonitrile/isopropanol (4:1, v/v) containing internal standard substances. However, the 0-minute reaction sample (198 μl) was prepared by adding the evaluation compound (2 μl) after adding the reaction stop solution (1000 μl). The samples after stopping the reaction were used as the measurement samples. Calibration curve samples with the same composition were prepared (final concentrations of the evaluation compounds and brexpiprazole: 0.01, 0.1, and 1 μmol/L, with the proviso that for the evaluation compounds only, the 0-minute reaction samples were also used as calibration curve samples for 1 μmol/L).
For the compounds of Examples 24 to 25, 28 to 29, 32 to 36, 40 to 49, 51 to 60, 62 to 64, 66 to 77, 80 to 86, 90, 92 to 111, 113, 115, 117 to 120, 122, 124 to 130, 132 to 147, and 152 to 160 (EX 24 to EX 25, EX 28 to EX 29, EX 32 to EX 36, EX 40 to EX 49, EX 51 to EX 60, EX 62 to EX 64, EX 66 to EX 77, EX 80 to EX 86, EX 90, EX 92 to EX 111, EX 113, EX 115, EX 117 to EX 120, EX 122, EX 124 to EX 130, EX 132 to EX 147, and EX 152 to EX 160), the reaction solution without the evaluation compound (148.5 μl) was pre-incubated at 37° C. for 3 minutes, and then each of the evaluation compound solutions (1.5 μl) was added and stirred; thereafter, the reaction was started at 37° C. At 0 minutes or 60 minutes after the start of the reaction, the reaction was stopped by adding and stirring a reaction stop solution (600 μl) composed of acetonitrile/isopropanol (4:1, v/v) containing internal standard substances. However, the 0-minute reaction sample (148.5 μl) was prepared by adding the evaluation compound (1.5 μl) after adding the reaction stop solution (600 μl). The samples after stopping the reaction were used as the measurement samples. Calibration curve samples with the same composition were prepared (final concentrations of the evaluation compounds and brexpiprazole: 0.01, 0.1, and 1 μmol/L, with the proviso that for the evaluation compounds only, the 0-minute reaction samples were also used as calibration curve samples for 1 μmol/L). […]

Row | Compound | cytotoxicity at 24 h, 300 µM (in vitro) | Concentration of brexpiprazole formed [1] | Concentration of evaluation compound decreased [1] | stability in the buffer / conversion to brexpiprazole (in words) ([1]; Tris-hydrochloric acid buffer pH 7.5, 37° C., 60 minutes, 1 μmol/L)
1 | CC(C)C(=O)OP(=O)([O-])OC[N+]1(CCCCOc2ccc3ccc(=O)[nH]c3c2)CCN(c2cccc3sccc23)CC1 [EX 149, (4-(benzothiophen-4-yl)-1-(4-((2-oxo-1H-quinolin-7-yl)oxy)butyl)piperazin-1-ium-1-yl)methyl 2-methylpropanoyl phosphate] | -3% | – | – | –
2 | CCC(C)(C)C(=O)OCOP(=O)([O-])OC[N+]1(CCCCOc2ccc3ccc(=O)[nH]c3c2)CCN(c2cccc3sccc23)CC1 [EX 122, (4-(benzo[b]thiophen-4-yl)-1-(4-((2-oxo-1,2-dihydroquinolin-7-yl)oxy)butyl)piperazin-1-ium-1-yl)methyl (((2,2-dimethylbutanoyl)oxy)methyl) phosphate] | – | 0 nM | 50 nM | –
3 | COP(=O)([O-])OC[N+]1(CCCCOc2ccc3ccc(=O)[nH]c3c2)CCN(c2cccc3sccc23)CC1 [EX 87, (4-(benzo[b]thiophen-4-yl)-1-(4-((2-oxo-1,2-dihydroquinolin-7-yl)oxy)butyl)piperazin-1-ium-1-yl)methyl methyl phosphate] | – | 0 nM | 0 nM | –
4 | CCOC(=O)CCCC(=O)OCOP(=O)([O-])OC[N+]1(CCCCOc2ccc3ccc(=O)[nH]c3c2)CCN(c2cccc3sccc23)CC1 [EX 68, (4-(benzo[b]thiophen-4-yl)-1-(4-((2-oxo-1,2-dihydroquinolin-7-yl)oxy)butylpiperazin-1-ium-1-yl)methyl (((5-ethoxy-5-oxopentanoyl)oxy)methyl) phosphate] | – | 0 nM | 90 nM | –
5 | CCC(=O)OC[N+]1(CCCCOc2ccc3ccc(=O)[nH]c3c2)CCN(c2cccc3sccc23)CC1 [Reference Example 5, reference compound] | – | – | – | clearly degraded to brexpiprazole
6 | CC(C)NC(=O)CCCC(=O)OCOP(=O)([O-])OC[N+]1(CCCCOc2ccc3ccc(=O)[nH]c3c2)CCN(c2cccc3sccc23)CC1 [EX 73, (4-(benzo[b]thiophen-4-yl)-1-(4-((2-oxo-1,2-dihydroquinolin-7-yl)oxy)butyl)piperazin-1-ium-1-yl)methyl (((5-(isopropylamino)-5-oxopentanoyl)oxy)methyl) phosphate] | – | 0 nM | 130 nM | –
7 | CCCOP(=O)([O-])OC[N+]1(CCCCOc2ccc3ccc(=O)[nH]c3c2)CCN(c2cccc3sccc23)CC1 [EX 88, (4-(benzo[b]thiophen-4-yl)-1-(4-((2-oxo-1,2-dihydroquinolin-7-yl)oxy)butyl)piperazin-1-ium-1-yl)methyl propyl phosphate] | – | 0 nM | -10 nM | –
8 | CC(C)OP(=O)([O-])OC[N+]1(CCCCOc2ccc3ccc(=O)[nH]c3c2)CCN(c2cccc3sccc23)CC1 [EX 5, (4-(benzo[b]thiophen-4-yl)-1-(4-((2-oxo-1,2-dihydroquinolin-7-yl)oxy)butyl)piperazin-1-ium-1-yl)methyl isopropyl phosphate] | – | 0 nM | 70 nM | –
9 | CCC(=O)OC[N+]1(CCCCOc2ccc3ccc(=O)[nH]c3c2)CCN(c2cccc3sccc23)CC1.[I-] [REX 5, 4-(Benzo[b]thiophen-4-yl)-1-(4-((2-oxo-1,2-dihydroquinolin-7-yl)oxy)butyl)-1-((propionyloxy)methyl)piperazin-1-ium iodide, reference compound] | – | 260 nM | 200 nM | –
10 | CCCC(=O)OCOP(=O)([O-])OC[N+]1(CCCCOc2ccc3ccc(=O)[nH]c3c2)CCN(c2cccc3sccc23)CC1 [EX 121] | – | 0 nM | 90 nM | –
11 | CCCCCCOC(=O)OC[N+]1(CCCCOc2ccc3ccc(=O)[nH]c3c2)CCN(c2cccc3sccc23)CC1.[I-] [REX 7, 4-(Benzo[b]thiophen-4-yl)-1-((((hexyloxy)carbonyl)oxy)methyl)-1-(4-((2-oxo-1,2-dihydroquinolin-7-yl)oxy)butyl)piperazin-1-ium iodide, reference compound] | – | 240 nM | 270 nM | –
12 | CC(C)(C)C(=O)OCOP(=O)([O-])OC[N+]1(CCCCOc2ccc3ccc(=O)[nH]c3c2)CCN(c2cccc3sccc23)CC1 [EX 25, (4-(benzo[b]thiophen-4-yl)-1-(4-((2-oxo-1,2-dihydroquinolin-7-yl)oxy)butyl)piperazin-1-ium-1-yl)methyl ((pivaloyloxy)methyl) phosphate] | – | 0 nM | -10 nM | –
13 | O=c1ccc2ccc(OCCCC[N+]3(COP(=O)([O-])OC[C@H]4CC[C@H](CO)CC4)CCN(c4cccc5sccc45)CC3)cc2[nH]1 [EX 86, (4-(benzo[b]thiophen-4-yl)-1-(4-((2-oxo-1,2-dihydroquinolin-7-yl)oxy)butyl)piperazin-1-ium-1-yl)methyl (((1r,4r)-4-(hydroxymethyl)cyclohexyl)methyl) phosphate] | – | 0 nM | 50 nM | –
14 | COc1ccc(COC(=O)CC(C)(C)CC(=O)OCOP(=O)([O-])OC[N+]2(CCCCOc3ccc4ccc(=O)[nH]c4c3)CCN(c3cccc4sccc34)CC2)cc1 [EX 72, (4-(benzo[b]thiophen-4-yl)-1-(4-((2-oxo-1,2-dihydroquinolin-7-yl)oxy)butyl)piperazin-1-ium-1-yl)methyl (((5-((4-methoxybenzyl)oxy)-3,3-dimethyl-5-oxopentanoyl)oxy)methyl) phosphate] | – | 0 nM | 150 nM | –
15 | O=c1ccc2ccc(OCCCC[N+]3(COP(=O)([O-])OCC(F)F)CCN(c4cccc5sccc45)CC3)cc2[nH]1 [EX 115, (4-(benzo[b]thiophen-4-yl)-1-(4-(2-oxo-1,2-dihydroquinolin-7-yl)oxy)butyl)piperazin-1-ium-1-yl)methyl (2,2-difluoroethyl) phosphate] | – | 0 nM | 50 nM | –
